“Also recorded” adds a separate entry of the source.
How the values were obtained:
[1] = tested on: human CD63 (hCD63) gene; assay: RT-qPCR of hCD63 gene expression in MSCs cultured in different media; format: cell-based; details: FIG. 2B
Procedure: (§1) Mesenchymal stem cells were seeded on the plate at a density of ˜5000 cells/cm^2 and the plate was placed in 5% CO2 humidified incubator. One day after the incubation, the culture media was aspirated to remove non-adherent cells and switched with a fresh media. The plate was incubated again. After further culturing for around 3 to 5 days, the culture media was aspirated and replaced by CDPF and/or lysosome inhibitor medium. The cells were cultured in the CDPF and/or lysosome inhibitor medium for 12, 24, or 48 hours. After the designated period of culturing, the culture media was collected and cell lysis buffer was immediately added to the cells on the plate. The collected media and cell lysate were each independently subjected to detection of the level of CD63 by ELISA and by qPCR, respectively.
To compare hCD63+ expression in MSCs cultured in various media including CCM, CDPF, and CDPF with lysosome inhibitor, RT-quantitative real-time PCR (RT-qPCR) assays were performed.

[2] = tested on: human MSCs; assay: CD63 ELISA of culture media collected after culture with stem cells (secretion of EVs); format: cell-based; details: FIG. 3A
Procedure: as §1, with “5000” for “˜5000”
To quantitatively compare CD63+ expression in CM cultured in various media including CCM, CDPF, and CDPF with lysosome inhibitor, enzyme-linked immunosorbent (ELISA) assays were performed.

[3] = tested on: fatty acid synthase (FASN); assay: qPCR relative quantification (RQ) of fatty acid synthase (FASN) in MSCs; format: cell-based, human; details: FIG. 3C
[4] = tested on: human MSCs; assay: Intracellular acidification of MSCs, acidic organelles stained by lysotracker red; format: cell-based; details: MSCs in CDPF with lysosome inhibitor vs CCM and CDPF, FIG. 2A
Procedure: as §1
Human MSCs were cultured in different media including complete culture medium (CCM), CDPF, and CDPF with lysosome inhibitor. The acidic organelles in live stem cells were stained by lysotracker red. […] Without lysosome inhibitor, the intracellular acidification was not suppressed.

[5] = MSCs in CDPF with lysosome inhibitor, RT-qPCR

**Q.** `CCN(CC)CCCC(C)Nc1ccnc2cc(Cl)ccc12` (stereo not drawn) [lysosome inhibitor, chloroquine] was tested. Which “expression of human CD63 gene in the MSCs (in words)” value ([1]; CDPF with lysosome inhibitor vs CCM, CDPF, qPCR) did it give?
**A.** The value was “increased; also recorded: dramatic increase”.

**Q.** And the “expression of hCD63+ gene, times higher than MSCs cultured in CCM” value [1, 5]?
**A.** The value was “about 10 times”.

**Q.** And the “expression of hCD63+ gene, times higher than MSCs cultured in CDPF without lysosome inhibitor” value [1, 5]?
**A.** The value was “about 5 times”.

**Q.** What about the “secretion of EVs (CD63-positive particles) from stem cells to the cultured media (in words)” value ([2]; Ly_Inhibitor+CDPF vs CCM and CDPF, CD63 ELISA) of the same molecule?
**A.** The value was “stimulated”.

**Q.** And the “EV production (CD63+ particles), times higher than MSCs cultured in CCM or in CDPF without lysosome inhibitor” value ([2]; MSCs in CDPF with lysosome inhibitor, CD63 ELISA of media)?
**A.** Its value is “about 2.3 times”.

**Q.** What about the “expression of FASN, times higher than MSCs cultured in CCM” value ([3]; MSCs in CCM with lysosome inhibitor, RT-qPCR) of the same molecule?
**A.** The value was “about 25 times”.

**Q.** What about the “expression of FASN, times higher than MSCs cultured in CDPF without lysosome inhibitor” value [3, 5] of the same molecule?
**A.** Its value is “about 5 times”.

**Q.** And the “gene expression of FASN (in words)” value ([3]; treatment with the inhibitor, qPCR RQ)?
**A.** The value was “drastically induced”.

**Q.** And the “intracellular acidification of human MSCs” value [4]?
**A.** Its value is “suppressed”.

Source: patent publication US20240018480A1, “ENHANCEMENT OF EXTRACELLULAR VESICLE PRODUCTION BY LYSOSOME INHIBITOR” (ExoTop Theragnostics Inc., priority 2022, published 2024)
